Patent US20170368015A1, “NOVEL COMPOUND AND ANTIVIRAL AGENT CONTAINING SAME AS ACTIVE INGREDIENT” (NATIONAL UNIVERSITY CORPORATION CHIBA UNIVERSITY, priority 2014, published 2017)
Read-outs that look alike come from different tables or passages of the source.

System: RS virus
Assay: Evaluation of anti-RS viral activity (MTT assay kit; viable cell count of RS virus-infected Hep2 cells)
Format: cell-based, RS virus (human respiratory syncytial virus)
Details: for viability at 80 µM / viability at 16 µM: human respiratory syncytial virus, read-out: Survival Rate (%)
Procedure: The aforementioned Compound 1 (No. 150) to Compound 22 (No. 306) were measured for anti-RS viral activity according to the protocol of MTT assay kit (CellTiter-Glo (registered trade name) Assay, Promega Corporation).
In a 96-well plate, Hep2 cells were seeded at 1×10^3 cells per well, and each of compounds in the amount shown in Table 7, and RS virus having an infectivity titer of 1 MOI were added, and cultured for 72 hours, and then a viable cell count was determined. As a control, a well containing DMSO at 25 μM (when the additive amount of the compound is 80 μM) or 5 μM (when the additive amount of the compound is 16 μM) in place of a compound was prepared.

[1] = HEp-2, additive amount 80 μM, Hep2 cells, RS virus 1 MOI, cultured 72 hours, DMSO control = 100
[2] = HEp-2, additive amount 16 μM, Hep2 cells, RS virus 1 MOI, cultured 72 hours, DMSO control = 100

CCOC(=O)C1=CN2C(=O)CCN2[C@@H]1c1ccc(OC)cc1 [Compound 18, ethyl(R)-1-(4-methoxyphenyl)-5-oxo-6,7-dihydro-1H,5H-pyrazolo[1,2-a]pyrazole-2-carboxylate]
viability at 80 µM [1]: 349%

COC(=O)[C@H]1N[C@@H](c2ccccc2)[C@@H]([N+](=O)[O-])[C@@H]1c1ccccc1 [Compound 20, methyl(2S,3R,4S,5S)-4-nitro-3,5-diphenylpyrrolidine-2-carboxylate]
viability at 80 µM [1]: 344%

CN1C(=O)[C@@](C[N+](=O)[O-])(c2c[nH]c3ccccc23)c2ccccc21 [Compound 9, (S)-3-(1H-indole-3-yl)-1-methyl-3-(nitromethyl)indoline-2-one]
viability at 80 µM [1]: 276%

c1ccc(-c2nnc(-c3ccccc3)o2)cc1 [Compound 21, 2,5-diphenyl-1,3,4-oxadiazole]
viability at 80 µM (HEp-2, 72 h): 248%

CC(C)(C)OC(=O)[C@H]1N[C@H](c2ccccc2)[C@@]2(C(=O)Nc3ccccc32)[C@@H]1c1ccc(Br)cc1 [Compound 12, tert-butyl(2′R,3R,4′S,5′S)-4′-(4-bromophenyl)-2-oxo-2′-phenylspiro[indoline-3,3′-pyrrolidine]-5′-carboxylate]
viability at 16 µM [2]: 475%

N[C@@H](C(=O)O)c1cccc2ccccc12 [Compound 4, (R)-2-amino-2-(naphthalene-1-yl) acetic acid]
viability at 80 µM [1]: 450%

Cc1ccc([C@@H]2[C@@H](C(=O)OC(C)(C)C)N[C@H](c3ccccc3)[C@@]23C(=O)Nc2ccccc23)cc1 [Compound 13, tert-butyl(2′R,3R,4′S,5′S)-2-oxo-2′-phenyl-4′-(p-tolyl)spiro[indoline-3,3′-pyrrolidine]-5′-carboxylate]
viability at 16 µM [2]: 406%

O=P12c3ccccc3CN1[C@H](CNc1ccccc1)CCN2c1ccccc1 (stereo partly drawn) [Compound 8, (4S,11R)-1-phenyl-4-((phenylamino)methyl)-1,2,3,4,6-pentahydrobenzo[3,4][1,2]azaphosphoro [1,2-a][1,3,2]diazaphosphinine 11-oxide]
viability at 16 µM [2]: 815%

COc1ccc(NCCNc2ccc(OC)cc2)cc1 [Compound 6, N1,N2-bis(4-methoxyphenyl)ethane-1,2-diamine]
viability at 16 µM (HEp-2, 72 h): 472%

COC(=O)C1=C(c2ccccc2)C(c2ccccc2)(C(C#N)C#N)C(C(=O)OC)=C1O (stereo not drawn) [Compound 1, dimethyl 5-(dicyanomethyl)-2-hydroxy-4,5-diphenylcyclopenta-1,3-diene-1,3-dic arboxylate]
viability at 80 µM [1]: 359%

Oc1c(Br)cc(Br)cc1/C=N/[C@H](c1ccccc1)[C@@H](c1ccccc1)N1Cc2ccccc2C1 [Compound 15, 2,4-dibromo-6-((E)-(((1R,2R)-2-(isoindoline-2-yl)-1,2-diphenylethyl)imino)methyl)phenol]
viability at 16 µM [2]: 393%

Clc1ccc(NCCNc2ccc(Cl)cc2)cc1 [Compound 7, N1,N2-bis(4-chlorophenyl)ethane-1,2-diamine]
viability at 16 µM [2]: 405%

Cc1ccc2c(c1)[C@](C[N+](=O)[O-])(c1c[nH]c3c(C)cccc13)C(=O)N2C [Compound 10, (S)-1,5-dimethyl-3-(7-methyl-1H-indole-3-yl)-3-(nitromethyl)indoline-2-one]
viability at 16 µM [2]: 294%

C=CCN1C(=O)/C(=C/[N+](=O)[O-])c2ccccc21 [Compound 14, (E)-1-allyl-3-(nitromethylene)indoline-2-one]
viability at 16 µM [2]: 409%

c1ccc(NCCNc2ccccc2)cc1 [Compound 5, N1,N2-diphenylethane-1,2-diamine]
viability at 16 µM [2]: 471%

CCOC(=O)C1=CN2C(=O)CCN2[C@@H]1c1cccc(Cl)c1 [Compound 17, ethyl(R)-1-(3-chlorophenyl)-5-oxo-6,7-dihydro-1H,5H-pyrazolo[1,2-a]pyrazole-2-carboxylate]
viability at 80 µM [1]: 264%

c1ccc(CN2[C@H](c3cccc([C@@H]4N[C@@H](c5ccccc5)[C@H](c5ccccc5)N4Cc4ccccc4)n3)N[C@@H](c3ccccc3)[C@@H]2c2ccccc2)cc1 [Compound 11, 2,6-bis((2R,4S,5S)-1-benzyl-4,5-diphenylimidazolidine-2-yl)pyridine]
viability at 16 µM [2]: 274%

CCOC(=O)C1=CN2C(=O)CCN2[C@@H]1C1CCCCC1 [Compound 19, ethyl(R)-1-cyclohexyl-5-oxo-6,7-dihydro-1H,5H-pyrazolo[1,2-a]pyrazole-2-carboxylate]
viability at 16 µM [2]: 209%

COC(=O)[C@@H]1N[C@H](c2cccc([C@H]3N[C@@H](C(=O)OC)[C@H](c4ccccc4)[C@H]3[N+](=O)[O-])c2)[C@H]([N+](=O)[O-])[C@H]1c1ccccc1 [Compound 2, dimethyl 5,5′-(1,3-phenylene) (2R, 2′R, 3S, 3′S, 4R, 4′R, 5R, 5′R)-bis(4-nitro-3-phenylpyrrolidine-2-carboxylate)]
Survival Rate (%) (additive amount 80 μM, Hep2 cells, RS virus 1 MOI, cultured 72 hours, DMSO control = 100): 332%

O=C1CCCCCC1C(Nc1ccc(OC(F)(F)F)cc1)c1ccccc1 (stereo not drawn) [Compound 16, 2-(phenyl((4-(trifluoromethoxy)phenyl)amino)methyl)cycloheptane-1-one]
viability at 16 µM [2]: 294%

CCOC(=O)C1=CN2C(=O)CC(C)(C)N2C1c1ccccc1 (stereo not drawn) [Compound 22, ethyl7,7-dimethyl-5-oxo-1-phenyl-6,7-dihydro-1H,5H-pyrazolo[1,2-a]pyrazole-2-carboxyl ate]
viability at 80 µM [1]: 339%
